This assay in a line: Oxygen Radical Absorption Capacity (ORAC) assay, fluorescein/AAPH, Trolox equivalents. Type of assay: biochemical. To be noted: pure antioxidants, analyses performed in the present studies; Table IV. From the text:
The Oxygen Radical Absorption Capacity (ORAC) assay is commonly used to measure the antioxidative capacity of various antioxidants. The ORAC assay provides an effective measure of antioxidant protection afforded to physiologically important biomolecules such as proteins. ORAC assays that may be used in the present invention include, for example, those described in U.S. Pat. No. 6,060,324, Methods in Enzymology (1999) 299: 50-62 (Cao and Prior), and Ou et al., 2001. J. Agric. Food Chem. 49: 4619-4626. […] Unless otherwise stated, the ORAC values are expressed as a TroloxTM equivalent value per gram of extract. Antioxidant properties of extracts were estimated using the Oxygen Radical Absorption Capacity (ORAC) method. The analytical procedure has been adapted from a published method (Ou et al., 2001. J. Agric. Food Chem. 49: 4619-4626), using 96-well microplates and a […] spectrofluorometer (Molecular Devices Corporation, Sunnyvale, Calif., USA). After appropriate dilution (typically between 1/100 to 1/1000), a 30-μl aliquot of the extract was added to each well in which 150 μl of 1.04 μM fluorescein and 30 μl of 162 mM 2,2'-azobis (2-amidinopropane) hydrochloride (AAPH) were previously added. TroloxTM (6-hydroxy-2,5,7,8-tetramethylchroman-2-carboxylic acid), a water soluble analog of vitamin E, was used as positive control, and phosphate buffer pH 7.4 was used as the analytical blank. The reactive mixture was incubated at 37.5° C. for 90 min. Final results were calculated as a function of the difference between the surface under the curves between blanks and extracts, and the antioxidant properties expressed as ORAC values in equivalent micromolar of TroloxTM by dry weight of the sample (μmol TE/g extract).

`Cc1c(C)c2c(c(C)c1O)CC[C@@](C)(CCC[C@H](C)CCC[C@H](C)CCCC(C)C)O2` [α-Tocopherol]: the ORAC values turned out to be 5657 μmol TE/g dry extract.

As for `CC1=C(/C=C/C(C)=C/C=C/C(C)=C/C=C/C=C(C)/C=C/C=C(C)/C=C/C2=C(C)CCCC2(C)C)C(C)(C)CCC1` [β-carotene], the ORAC values is 3183 μmol TE/g dry extract.

Turning to Catechin, the ORAC values came to 16601 μmol TE/g dry extract.

Source of the values: US8445028B2, “Echinoderm-derived extracts, methods of preparation and uses thereof” (Rival, S.E.C., priority 2008, dated 2013).
